Patent US9738634B2, “Heterocyclic amide compound and herbicide” (SYNGENTA PARTICIPATIONS AG, priority 2013, dated 2017)

Legend:
Format in all cases: in vivo
soybean [1] = assay: Test Example 4: foliar treatment, effect on crop; d: soybean; conditions: treatment dosage 315 g/ha
In short: (§1)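 Seeds are spot-sown into sterilized diluvial soil and covered with about 1.5 cm of soil. After 14 days' greenhouse growth at 25 to 30° C, plants are sprayed on stems and leaves with diluted emulsion at the stated g/ha rate, then scored at 3 weeks.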

bulrush [2] = assay: Test Example 2: weedkilling efficacy, growth period weed treatment in the submerged state; B: bulrush; conditions: treatment dosage 252 g/ha
In short: (§2)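 Barnyard grass, bulrush and oval-leafed pondweed sown in alluvial soil under 4 cm flooding, greenhouse 25 to 30° C. At 1-2 leaf stage, water-diluted emulsion applied to the water surface at stated g/ha dosages; effects scored 3 weeks later.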

wild oat [3] = assay: Test Example 3: weedkilling efficacy through soil treatment; G: wild oat; conditions: treatment dosage 315 g/ha
In short: (§3)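 Crop and weed responses were judged three weeks after a uniform surface spray of the water-diluted emulsion at the given g/ha rate. Seeds sat beneath about 1.5 cm of sterilized diluvial soil, and boxes stood in a greenhouse at 25 to 30° C.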

catchweed = assay: Test Example 4: weedkilling efficacy by foliar treatment; O: catchweed; conditions: treatment dosage 315 g/ha
In short: as §1

transplanted rice = assay: Test Example 1: preemergent weed treatment in the submerged state, effect on crop; a: transplanted rice; conditions: treatment dosage 252 g/ha
In short: (§4)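 Visual scores against set criteria were taken 3 weeks after treatment. Compounds, as diluted emulsions at specified g/ha, went onto the water surface of 4 cm-flooded alluvial soil pots on the day weeds were sown and 2.5-leaf rice was transplanted; greenhouse held 25–30 °C.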

corn [4] = assay: Test Example 3: soil treatment, effect on crop; c: corn; conditions: treatment dosage 315 g/ha
In short: as §3

birds-eye speedwell [5] = assay: Test Example 4: weedkilling efficacy by foliar treatment; p: birds-eye speedwell; conditions: treatment dosage 315 g/ha
In short: as §1

directly sown rice = assay: Test Example 4: foliar treatment, effect on crop; b: directly sown rice; conditions: treatment dosage 315 g/ha
In short: as §1

crabgrass [6] = assay: Test Example 3: weedkilling efficacy through soil treatment; D: crabgrass; conditions: treatment dosage 315 g/ha
In short: as §3

oval-leafed pondweed [7] = assay: Test Example 2: weedkilling efficacy, growth period weed treatment in the submerged state; C: oval-leafed pondweed; conditions: treatment dosage 252 g/ha
In short: as §2

barnyard grass [8] = assay: Test Example 2: weedkilling efficacy, growth period weed treatment in the submerged state; A: barnyard grass; conditions: treatment dosage 252 g/ha
In short: as §2

chickweed [9] = assay: Test Example 3: weedkilling efficacy through soil treatment; N: chickweed; conditions: treatment dosage 315 g/ha
In short: as §3

Italian ryegrass [10] = assay: Test Example 3: weedkilling efficacy through soil treatment; I: Italian ryegrass; conditions: treatment dosage 315 g/ha
In short: as §3

redroot pigweed [11] = assay: Test Example 4: weedkilling efficacy by foliar treatment; L: redroot pigweed; conditions: treatment dosage 315 g/ha
In short: as §1

bulrush [12] = assay: Test Example 1: weedkilling efficacy, preemergent weed treatment in the submerged state; B: bulrush; conditions: treatment dosage 252 g/ha
In short: as §4

Indian mallow [13] = assay: Test Example 4: weedkilling efficacy by foliar treatment; K: Indian mallow; conditions: treatment dosage 315 g/ha
In short: as §1

Italian ryegrass [14] = assay: Test Example 4: weedkilling efficacy by foliar treatment; I: Italian ryegrass; conditions: treatment dosage 315 g/ha
In short: as §1

crabgrass [15] = assay: Test Example 4: weedkilling efficacy by foliar treatment; D: crabgrass; conditions: treatment dosage 315 g/ha
In short: as §1

barnyard grass [16] = assay: Test Example 1: weedkilling efficacy, preemergent weed treatment in the submerged state; A: barnyard grass; conditions: treatment dosage 252 g/ha
In short: as §4

black-grass [17] = assay: Test Example 3: weedkilling efficacy through soil treatment; H: black-grass; conditions: treatment dosage 315 g/ha
In short: as §3

wheat [18] = assay: Test Example 3: soil treatment, effect on crop; e: wheat; conditions: treatment dosage 315 g/ha
In short: as §3

black-grass [19] = assay: Test Example 4: weedkilling efficacy by foliar treatment; H: black-grass; conditions: treatment dosage 315 g/ha
In short: as §1

Indian mallow [20] = assay: Test Example 3: weedkilling efficacy through soil treatment; K: Indian mallow; conditions: treatment dosage 315 g/ha
In short: as §3

green foxtail [21] = assay: Test Example 4: weedkilling efficacy by foliar treatment; E: green foxtail; conditions: treatment dosage 315 g/ha
In short: as §1

oval-leafed pondweed [22] = assay: Test Example 1: weedkilling efficacy, preemergent weed treatment in the submerged state; C: oval-leafed pondweed; conditions: treatment dosage 252 g/ha
In short: as §4

wild oat [23] = assay: Test Example 4: weedkilling efficacy by foliar treatment; G: wild oat; conditions: treatment dosage 315 g/ha
In short: as §1

chickweed [24] = assay: Test Example 4: weedkilling efficacy by foliar treatment; N: chickweed; conditions: treatment dosage 315 g/ha
In short: as §1

redroot pigweed [25] = assay: Test Example 3: weedkilling efficacy through soil treatment; L: redroot pigweed; conditions: treatment dosage 315 g/ha
In short: as §3

wheat [26] = assay: Test Example 4: foliar treatment, effect on crop; e: wheat; conditions: treatment dosage 315 g/ha
In short: as §1

corn [27] = assay: Test Example 4: foliar treatment, effect on crop; c: corn; conditions: treatment dosage 315 g/ha
In short: as §1

beet = assay: Test Example 3: soil treatment, effect on crop; f: beet; conditions: treatment dosage 315 g/ha
In short: as §3

soybean [28] = assay: Test Example 3: soil treatment, effect on crop; d: soybean; conditions: treatment dosage 315 g/ha
In short: as §3

green foxtail [29] = assay: Test Example 3: weedkilling efficacy through soil treatment; E: green foxtail; conditions: treatment dosage 315 g/ha
In short: as §3

fig-leafed goosefoot [30] = assay: Test Example 3: weedkilling efficacy through soil treatment; M: fig-leafed goosefoot; conditions: treatment dosage 315 g/ha
In short: as §3

fig-leafed goosefoot [31] = assay: Test Example 4: weedkilling efficacy by foliar treatment; M: fig-leafed goosefoot; conditions: treatment dosage 315 g/ha
In short: as §1

birds-eye speedwell [32] = assay: Test Example 3: weedkilling efficacy through soil treatment; p: birds-eye speedwell; conditions: treatment dosage 315 g/ha
In short: as §3

| SMILES | d (soybean) effect on crop grade (soybean [1]) | B (bulrush) weedkilling efficacy grade (bulrush [2]) | G (wild oat) weedkilling efficacy grade (wild oat [3]) | O (catchweed) weedkilling efficacy grade (catchweed) | a (transplanted rice) effect on crop grade (transplanted rice) | c (corn) effect on crop grade (corn [4]) | P (birds-eye speedwell) weedkilling efficacy grade (birds-eye speedwell [5]) | b (directly sown rice) effect on crop grade (directly sown rice) | D (crabgrass) weedkilling efficacy grade (crabgrass [6]) | C (oval-leafed pondweed) weedkilling efficacy grade (oval-leafed pondweed [7]) | A (barnyard grass) weedkilling efficacy grade (barnyard grass [8]) | N (chickweed) weedkilling efficacy grade (chickweed [9]) | I (Italian ryegrass) weedkilling efficacy grade (Italian ryegrass [10]) | L (redroot pigweed) weedkilling efficacy grade (redroot pigweed [11]) | B (bulrush) weedkilling efficacy grade (bulrush [12]) | K (Indian mallow) weedkilling efficacy grade (Indian mallow [13]) | I (Italian ryegrass) weedkilling efficacy grade (Italian ryegrass [14]) | D (crabgrass) weedkilling efficacy grade (crabgrass [15]) | A (barnyard grass) weedkilling efficacy grade (barnyard grass [16]) | H (black-grass) weedkilling efficacy grade (black-grass [17]) | further results |
| --- | --- | --- | --- | --- | --- | --- | --- | --- | --- | --- | --- | --- | --- | --- | --- | --- | --- | --- | --- | --- | --- |
| CC1=C(c2ccccc2)C(=O)N(C(C)(C)C(=O)Nc2cncc(F)c2)CO1 [B-3-01] | 4 (weed kill ratio 70% or more, less than 90%) | 5 (weed kill ratio 90% or more, (practically complete withering)) | 5 (weed kill ratio 90% or more, (practically complete withering)) | 4 (weed kill ratio 70% or more, less than 90%) | 0 (weed kill ratio 5% or less (practically no effect)) | 3 (weed kill ratio 40% or more, less than 70%) | 3 (weed kill ratio 40% or more, less than 70%) | 5 (weed kill ratio 90% or more, (practically complete withering)) | 5 (weed kill ratio 90% or more, (practically complete withering)) | 4 (weed kill ratio 70% or more, less than 90%) | 3 (weed kill ratio 40% or more, less than 70%) | 4 (weed kill ratio 70% or more, less than 90%) | 5 (weed kill ratio 90% or more, (practically complete withering)) | 3 (weed kill ratio 40% or more, less than 70%) | 5 (weed kill ratio 90% or more, (practically complete withering)) | 3 (weed kill ratio 40% or more, less than 70%) | 5 (weed kill ratio 90% or more, (practically complete withering)) | 5 (weed kill ratio 90% or more, (practically complete withering)) | 5 (weed kill ratio 90% or more, (practically complete withering)) | 5 (weed kill ratio 90% or more, (practically complete withering)) | e (wheat) effect on crop grade (wheat [18]): 5 (weed kill ratio 90% or more, (practically complete withering)); H (black-grass) weedkilling efficacy grade (black-grass [19]): 5 (weed kill ratio 90% or more, (practically complete withering)); K (Indian mallow) weedkilling efficacy grade (Indian mallow [20]): 2 (weed kill ratio 20% or more, less than 40%); E (green foxtail) weedkilling efficacy grade (green foxtail [21]): 5 (weed kill ratio 90% or more, (practically complete withering)); C (oval-leafed pondweed) weedkilling efficacy grade (oval-leafed pondweed [22]): 5 (weed kill ratio 90% or more, (practically complete withering)); G (wild oat) weedkilling efficacy grade (wild oat [23]): 5 (weed kill ratio 90% or more, (practically complete withering)); N (chickweed) weedkilling efficacy grade (chickweed [24]): 2 (weed kill ratio 20% or more, less than 40%); L (redroot pigweed) weedkilling efficacy grade (redroot pigweed [25]): 4 (weed kill ratio 70% or more, less than 90%); e (wheat) effect on crop grade (wheat [26]): 1 (weed kill ratio 5% or more, less than 20%); c (corn) effect on crop grade (corn [27]): 4 (weed kill ratio 70% or more, less than 90%); f (beet) effect on crop grade (beet): 4 (weed kill ratio 70% or more, less than 90%); d (soybean) effect on crop grade (soybean [28]): 0 (weed kill ratio 5% or less (practically no effect)); E (green foxtail) weedkilling efficacy grade (green foxtail [29]): 5 (weed kill ratio 90% or more, (practically complete withering)); M (fig-leafed goosefoot) weedkilling efficacy grade (fig-leafed goosefoot [30]): 5 (weed kill ratio 90% or more, (practically complete withering)) |
| CC1=C(c2ccccc2)C(=O)N(C(C)(C)C(=O)Nc2ccnc(F)c2)CO1 [B-4-02] | 4 (weed kill ratio 70% or more, less than 90%) | 5 (weed kill ratio 90% or more, (practically complete withering)) | 5 (weed kill ratio 90% or more, (practically complete withering)) | 5 (weed kill ratio 90% or more, (practically complete withering)) | 3 (weed kill ratio 40% or more, less than 70%) | 4 (weed kill ratio 70% or more, less than 90%) | 5 (weed kill ratio 90% or more, (practically complete withering)) | 5 (weed kill ratio 90% or more, (practically complete withering)) | 5 (weed kill ratio 90% or more, (practically complete withering)) | 4 (weed kill ratio 70% or more, less than 90%) | 3 (weed kill ratio 40% or more, less than 70%) | 4 (weed kill ratio 70% or more, less than 90%) | 5 (weed kill ratio 90% or more, (practically complete withering)) | 4 (weed kill ratio 70% or more, less than 90%) | 5 (weed kill ratio 90% or more, (practically complete withering)) | 3 (weed kill ratio 40% or more, less than 70%) | 5 (weed kill ratio 90% or more, (practically complete withering)) | 5 (weed kill ratio 90% or more, (practically complete withering)) | 5 (weed kill ratio 90% or more, (practically complete withering)) | 5 (weed kill ratio 90% or more, (practically complete withering)) | M (fig-leafed goosefoot) weedkilling efficacy grade (fig-leafed goosefoot [31]): 4 (weed kill ratio 70% or more, less than 90%); P (birds-eye speedwell) weedkilling efficacy grade (birds-eye speedwell [32]): 5 (weed kill ratio 90% or more, (practically complete withering)); e (wheat) effect on crop grade (wheat [18]): 1 (weed kill ratio 5% or more, less than 20%); H (black-grass) weedkilling efficacy grade (black-grass [19]): 5 (weed kill ratio 90% or more, (practically complete withering)); K (Indian mallow) weedkilling efficacy grade (Indian mallow [20]): 4 (weed kill ratio 70% or more, less than 90%); E (green foxtail) weedkilling efficacy grade (green foxtail [21]): 5 (weed kill ratio 90% or more, (practically complete withering)); C (oval-leafed pondweed) weedkilling efficacy grade (oval-leafed pondweed [22]): 5 (weed kill ratio 90% or more, (practically complete withering)); G (wild oat) weedkilling efficacy grade (wild oat [23]): 5 (weed kill ratio 90% or more, (practically complete withering)); N (chickweed) weedkilling efficacy grade (chickweed [24]): 3 (weed kill ratio 40% or more, less than 70%); L (redroot pigweed) weedkilling efficacy grade (redroot pigweed [25]): 5 (weed kill ratio 90% or more, (practically complete withering)); e (wheat) effect on crop grade (wheat [26]): 0 (weed kill ratio 5% or less (practically no effect)); c (corn) effect on crop grade (corn [27]): 4 (weed kill ratio 70% or more, less than 90%); f (beet) effect on crop grade (beet): 3 (weed kill ratio 40% or more, less than 70%); d (soybean) effect on crop grade (soybean [28]): 1 (weed kill ratio 5% or more, less than 20%); E (green foxtail) weedkilling efficacy grade (green foxtail [29]): 5 (weed kill ratio 90% or more, (practically complete withering)); M (fig-leafed goosefoot) weedkilling efficacy grade (fig-leafed goosefoot [30]): 5 (weed kill ratio 90% or more, (practically complete withering)) |
